Measured values: US10174015B2, “Substituted heterocyclic derivative, preparation method and use thereof” (Xiamen University, priority 2014, dated 2019)
Read-outs that look alike come from different tables or passages of the source. Marks after values point to notes of the source that are not given here.

Legend:
SNI neuropathic pain = assay: Neuropathic pain mouse model induced by spared nerve injury (SNI); assay type: in vivo, C57BL/6 mice; details: SNI mice; for effect compared to positive control drug gabapentin: 10 mg/kg i.p. vs gabapentin 100 mg/kg, 1 h after administration
Protocol: In the Experimental example, compounds to be evaluated or compounds to be tested or test compounds used are the Compounds 1-46 prepared in the Examples according to the invention. In the Experimental example, all the agents for injection, including compounds to be evaluated or compounds to be tested or test compounds, and positive control drug, were dissolved in a mixed solvent of PEG400:Tween 80:normal saline (at a volume ratio of 5:5:90), at a concentration of 5 mg/mL.
Neuropathic pain mouse model induced by spared nerve injury (SNI) is a common animal model for studying neuropathic pain medically. The invention uses the model to evaluate the therapeutic effects of the compounds on neuropathic pain, wherein the model can represent peripheral neuropathic pain including, but not limited to post-herpetic neuralgia, pain caused by diabetic perineuropathy, neurothlipsis and exudation caused by tumor, lumbar surgery failure syndrome, neuropathic pain caused by lumbar disc protrusion, postpartum neuralgia, trigeminal neuralgia, chemotherapy-induced multiple neuropathic pain, post-radiotherapy plexopathy, and radicular neuralgia.
C57BL/6 mice (purchased from Shanghai SLAC Laboratory Animal Co., Ltd) were anesthetized by intraperitoneal injection with pentobarbital sodium (40 mg/kg), and skin from knee joint to gluteal region was subjected to skin preparation and disinfection. After the mice were fixed, the knee joint part was cut about 1 cm longitudinally with bistoury, and muscle tissues were separated by blunt dissection to expose sciatic nerve. The tibial and common peroneal nerve branches of sciatic nerve stem were cut off carefully, and the cut was then stitched up. The mice was placed in a clean observation cage. In the sham-operation group, only sciatic nerve was exposed without cutting the tibial and common peroneal nerve branches. From the day before the experiment to 24 h after the operation, the plantar edges of the mice were stimulated everyday by […] (Ugo Basile Company (Italy), Product ID: 37450), and data was collected automatically to obtain the threshold value of mice to mechanical stimulation. […] The positive control drug gabapentin was administered at a dose of 100 mg/kg. All the agents to be injected were dissolved in a mixed solvent of PEG400:Tween 80:normal saline (at a volume ratio of 5:5:90), at a concentration of 5 mg/mL. By comparing the threshold values (the acting force of when the mouse retracting the paw) at different administration time in different administration groups, the compound was evaluated for its analgesic effect on neuropathic pain.

[1] = system: adjuvant-induced arthritis rat models; assay: Adjuvant-induced osteoarthritis pain, foot swelling degree; assay type: in vivo, rats; details: 10 mg/Kg; for Foot swelling degree after inflammation: X ± S, n = 10; for effect of inhibiting osteoarthritis pain: rats, indometacin 10 mg/Kg
Protocol: Typical model for studying inflammatory pain medically was used to evaluate the therapeutic effects of compounds on inflammatory pain. 0.1 mL Freund's complete adjuvant was intradermally injected to toe of the left hind foot of the rats in each group to obtain adjuvant-induced arthritis rat models. Foot volume method was used to measure primary and secondary foot swelling degree (swelling degree=volume after inflammation−volume before inflammation), and polyarticular arthritis were scored (5 scoring grades: 0 represents no red swelling; 4 represents red swelling at all the paws including anklebone. The scores are accumulated according to the lesion degree of the rest three limbs not injected with adjuvant, and the highest score is 12). Before inflammation and at 6 h, 12 h, 18 h and 24 h after inflammation, Paw Volume Meter was used to measure the foot volume at the inflammatory side, and the swelling degree was calculated. The model can represent inflammatory pain including, but not only limited to: osteoarthritis pain and fibromyalgia syndrome, inflammatory pain of rheumatic and rheumatoid arthritis, inflammatory pain of endometriosis, inflammatory toothache, ankylosing spondylitis pain, and gouty arthritis pain.

zebrafish embryos = assay type: in vivo; details: for Death number (72 h): n = 30; for observation of zebrafish embryo development: 48 h; for Body length (72 h) / Hatching number (72 h) / Heartbeat (72 h) / Unhatching number (72 h) / hatching rate: zebrafish, in vivo, 72 h
Protocol: By the same method described above, zebrafish fertilized eggs were cultured. 7 Groups were set for each test compound, including 5 experimental groups relating to the test compound at different concentrations (solutions containing the test compound at different concentrations were prepared by using zebrafish embryo culture medium, wherein the concentrations were 100 mg/L, 10 mg/L, 1 mg/L, 0.1 mg/L, 0.01 mg/L), 1 solvent control group (DMSO) and 1 blank control group. The fertilized eggs were placed and cultured in a 28.5° C. incubator, a certain humidity was ensured in the culture environment. Culture medium containing a test compound was prepared, and the culture medium was added to a 96-well plate in advance, and each fertilized egg (by reference to the experimental method in OECD No. 212 document, fertilized eggs, which developed normally within 24 h after fertilization, were selected and subjected to exposure. Transparent fish eggs visible to naked eye were normally fertilized, while white fish eggs were dead and discarded. After the selection, the normally fertilized eggs had begun to divide as observed under microscope) was then independently placed in a different well, and cultured in the culture medium containing a test compound at a different concentration. Embryo development status at different stages were observed and photographed with invert microscope, including:
I. Morphological observation: the developmental states of fertilized eggs (yolk being coagulated or not, eye spot, pericardial sac being edematous or not, bloodstream being existing or not, tail development status, and the like) were observed and photographed at 48 h, 72 h, and 96 h;
II. Hatching number and death number were counted at 72 h after fertilization, and hatching rate and mortality were calculated;
III. Body length of the hatched young fishes at 72 h was measured (measured after photographing with invert microscope); […]
V. Heartbeat of young fishes (times/min) was recorded at 72 h and 96 h after fertilization (Recording method: heartbeat of young fishes could be clearly observed under microscope, and the number of heartbeats was recorded for 30 s).

[2] = 10 mg/kg i.p. (gabapentin 100 mg/kg), 4 h after administration
[3] = 10 mg/kg intraperitoneal, 1 h and 4 h after administration (FIGS. 1 and 2)

Q: What does the source list for `O=C(CCCCCc1cccc(Cl)c1)N1CCOC1=O` [Compound 9, 3-Chlorophenylhexanoyl Oxazolidinone]?
A: effect of inhibiting central neuropathic pain (SNI neuropathic pain; [2]): retained a relatively strong effect of inhibiting central neuropathic pain; effect compared to positive control drug gabapentin (SNI neuropathic pain): not as effective as the control drug; effect of inhibiting central neuropathic pain (SNI neuropathic pain; [3]): significant effects of inhibiting central neuropathic pain; Foot swelling degree after inflammation ([1]; 6 h): 0.44 ± 0.09^c mL; Foot swelling degree after inflammation ([1]; 12 h): 0.75 ± 0.24^c mL; Foot swelling degree after inflammation ([1]; 18 h): 1.24 ± 0.24^b mL; Foot swelling degree after inflammation ([1]; 24 h): 1.06 ± 0.18^c mL; effect of inhibiting osteoarthritis pain [1]: significant effects of inhibiting osteoarthritis pain; Death number (72 h) (zebrafish embryos; 0.01 mg/L): 0; Death number (72 h) (zebrafish embryos; 0.1 mg/L): 0; Death number (72 h) (zebrafish embryos; 1 mg/L): 0; Death number (72 h) (zebrafish embryos; 10 mg/L): 0; observation of zebrafish embryo development (zebrafish embryos; 100 mg/L): no zebrafish embryos died, but phenomena such as pericardial cyst, no heartbeat, no bloodstream, no tail development and the like occurred in embryos; Death number (72 h) (zebrafish embryos; 100 mg/L): 30; Body length (72 h) (zebrafish embryos; 0.01 mg/L): 4.01 ± 0.24 mm; Hatching number (72 h) (zebrafish embryos; 0.01 mg/L): 30; Heartbeat (72 h) (zebrafish embryos; 0.01 mg/L): 124 ± 0.27 per min; Unhatching number (72 h) (zebrafish embryos; 0.01 mg/L): 0; Body length (72 h) (zebrafish embryos; 0.1 mg/L): 4.03 ± 0.62 mm; Hatching number (72 h) (zebrafish embryos; 0.1 mg/L): 30; Heartbeat (72 h) (zebrafish embryos; 0.1 mg/L): 124 ± 1.17 per min; Unhatching number (72 h) (zebrafish embryos; 0.1 mg/L): 0; Body length (72 h) (zebrafish embryos; 1 mg/L): 4.01 ± 0.26 mm; Hatching number (72 h) (zebrafish embryos; 1 mg/L): 30; Heartbeat (72 h) (zebrafish embryos; 1 mg/L): 124 ± 1.08 per min; Unhatching number (72 h) (zebrafish embryos; 1 mg/L): 0; Body length (72 h) (zebrafish embryos; 10 mg/L): 3.82 ± 0.44 mm; Hatching number (72 h) (zebrafish embryos; 10 mg/L): 28; Heartbeat (72 h) (zebrafish embryos; 10 mg/L): 117 ± 2.24 per min; Unhatching number (72 h) (zebrafish embryos; 10 mg/L): 2; hatching rate (zebrafish embryos; 10 mg/L): 93.3%; Hatching number (72 h) (zebrafish embryos; 100 mg/L): 0; Unhatching number (72 h) (zebrafish embryos; 100 mg/L): 30

Q: With `O=C(CCCCCc1ccccc1)N1CCOC1=O` [Compound 2, Phenylhexanoyl Oxazolidinone] as the molecule, how does the “effect of inhibiting central neuropathic pain” value (SNI neuropathic pain; [2]) read?
A: Its value is “retained a relatively strong effect of inhibiting central neuropathic pain”.

Q: And the “effect compared to positive control drug gabapentin” value (SNI neuropathic pain)?
A: The value was “not as effective as the control drug”.

Q: And the analgesic effect (SNI neuropathic pain; 10 mg/kg i.p., 10 h after administration (FIG. 3))?
A: The analgesic effect was “still had a sustained analgesic effect”.

Q: What about the “effect of inhibiting central neuropathic pain” value (SNI neuropathic pain; [3]) of the same molecule?
A: The value was “significant effects of inhibiting central neuropathic pain”.

Q: And the “Foot swelling degree after inflammation” value ([1]; 6 h)?
A: The value was 0.35 ± 0.07^c mL.

Q: And the “Foot swelling degree after inflammation” value ([1]; 12 h)?
A: Its value is 0.65 ± 0.13^c mL.

Q: What about the “Foot swelling degree after inflammation” value ([1]; 18 h) of the same molecule?
A: The value was 1.06 ± 0.14^c mL.

Q: What about the “Foot swelling degree after inflammation” value ([1]; 24 h) of the same molecule?
A: Its value is 0.89 ± 0.21^c mL.

Q: And the “effect of inhibiting osteoarthritis pain” value [1]?
A: The value was “significant effects of inhibiting osteoarthritis pain”.

Q: What about the “Death number (72 h)” value (zebrafish embryos; 0.01 mg/L) of the same molecule?
A: The value was 0.

Q: And the “Death number (72 h)” value (zebrafish embryos; 0.1 mg/L)?
A: The value was 0.

Q: What about the “Death number (72 h)” value (zebrafish embryos; 1 mg/L) of the same molecule?
A: The value was 0.

Q: And the “Death number (72 h)” value (zebrafish embryos; 10 mg/L)?
A: The value was 0.

Q: And the “observation of zebrafish embryo development” value (zebrafish embryos; 100 mg/L)?
A: Its value is “no zebrafish embryos died, but phenomena such as pericardial cyst, no heartbeat, no bloodstream, no tail development and the like occurred in embryos”.

Q: And the “Death number (72 h)” value (zebrafish embryos; 100 mg/L)?
A: The value was 30.

Q: And the “Body length (72 h)” value (zebrafish embryos; 0.01 mg/L)?
A: The value was 3.90 ± 0.93 mm.

Q: And the “Hatching number (72 h)” value (zebrafish embryos; 0.01 mg/L)?
A: The value was 30.

Q: What about the “Heartbeat (72 h)” value (zebrafish embryos; 0.01 mg/L) of the same molecule?
A: The value was 124 ± 1.67 per min.

Q: What about the “Unhatching number (72 h)” value (zebrafish embryos; 0.01 mg/L) of the same molecule?
A: The value was 0.

Q: What about the “Body length (72 h)” value (zebrafish embryos; 0.1 mg/L) of the same molecule?
A: Its value is 4.08 ± 0.09 mm.

Q: And the “Hatching number (72 h)” value (zebrafish embryos; 0.1 mg/L)?
A: The value was 30.

Q: What about the “Heartbeat (72 h)” value (zebrafish embryos; 0.1 mg/L) of the same molecule?
A: Its value is 123 ± 2.45 per min.

Q: And the “Unhatching number (72 h)” value (zebrafish embryos; 0.1 mg/L)?
A: The value was 0.

Q: And the “Body length (72 h)” value (zebrafish embryos; 1 mg/L)?
A: Its value is 3.92 ± 0.10 mm.

Q: What about the “Hatching number (72 h)” value (zebrafish embryos; 1 mg/L) of the same molecule?
A: The value was 30.

Q: What about the “Heartbeat (72 h)” value (zebrafish embryos; 1 mg/L) of the same molecule?
A: Its value is 123 ± 3.03 per min.

Q: What about the “Unhatching number (72 h)” value (zebrafish embryos; 1 mg/L) of the same molecule?
A: The value was 0.

Q: What about the “Body length (72 h)” value (zebrafish embryos; 10 mg/L) of the same molecule?
A: Its value is 3.78 ± 0.05 mm.

Q: What about the “Hatching number (72 h)” value (zebrafish embryos; 10 mg/L) of the same molecule?
A: The value was 28.

Q: And the “Heartbeat (72 h)” value (zebrafish embryos; 10 mg/L)?
A: The value was 117 ± 3.90 per min.

Q: What about the “Unhatching number (72 h)” value (zebrafish embryos; 10 mg/L) of the same molecule?
A: The value was 2.

Q: And the hatching rate (zebrafish embryos; 10 mg/L)?
A: Its hatching rate is 93.3%.

Q: What about the “Hatching number (72 h)” value (zebrafish embryos; 100 mg/L) of the same molecule?
A: Its value is 0.

Q: What about the “Unhatching number (72 h)” value (zebrafish embryos; 100 mg/L) of the same molecule?
A: The value was 30.
